Experimental data published in the NIST ThermoML archive (doi:10.1007/s10765-008-0410-4).
Numbers after ± are expanded uncertainties.

Test: xn = mol fraction of the nth substance listed
Details: Liquid, Vibrating tube method

CCCCn1cc[n+](C)c1.F[B-](F)(F)F [1-butyl-3-methylimidazolium tetrafluoroborate] + CCO
mass density (373.15 K, 30260 kPa, x1 = 0.0701): 841.81 ± 0.29 kg/m3
mass density (373.15 K, 30670 kPa, x1 = 0.3147): 1010.47 ± 0.16 kg/m3
mass density (373.15 K, 35030 kPa, x1 = 0.5384): 1092.26 ± 0.47 kg/m3
mass density (373.15 K, 35180 kPa, x1 = 0.7452): 1138.19 ± 0.85 kg/m3
mass density (373.15 K, 35220 kPa, x1 = 0.3147): 1013.34 ± 0.17 kg/m3
mass density (373.15 K, 35520 kPa, x1 = 0.0701): 846.1 ± 0.31 kg/m3
mass density (373.15 K, 35530 kPa, x1 = 1): 1177.22 ± 1.5 kg/m3
mass density (373.15 K, 36740 kPa, x1 = 0.9152): 1166.35 ± 1.2 kg/m3
mass density (373.15 K, 39820 kPa, x1 = 0.3147): 1016.1 ± 0.17 kg/m3
mass density (373.15 K, 39820 kPa, x1 = 1): 1179.41 ± 1.5 kg/m3
mass density (373.15 K, 39840 kPa, x1 = 0.0701): 849.4 ± 0.33 kg/m3
mass density (373.15 K, 39870 kPa, x1 = 0.9152): 1167.99 ± 1.3 kg/m3
mass density (373.15 K, 39920 kPa, x1 = 0.7452): 1140.63 ± 0.88 kg/m3
mass density (373.15 K, 39940 kPa, x1 = 0.5384): 1095.08 ± 0.49 kg/m3
mass density (398.15 K, 860 kPa, x1 = 0.9152): 1128.45 ± 0.95 kg/m3
mass density (398.15 K, 870 kPa, x1 = 1): 1141.05 ± 1.1 kg/m3
mass density (398.15 K, 920 kPa, x1 = 0.5384): 1049.06 ± 0.31 kg/m3
mass density (398.15 K, 940 kPa, x1 = 0.7452): 1098.62 ± 0.61 kg/m3
mass density (398.15 K, 960 kPa, x1 = 0.3147): 966.26 ± 0.17 kg/m3
mass density (398.15 K, 1010 kPa, x1 = 0.0701): 788.85 ± 0.17 kg/m3
mass density (398.15 K, 5060 kPa, x1 = 0.5384): 1052.44 ± 0.32 kg/m3
mass density (398.15 K, 5120 kPa, x1 = 0.7452): 1101.74 ± 0.63 kg/m3
mass density (398.15 K, 5750 kPa, x1 = 0.0701): 795.42 ± 0.19 kg/m3
mass density (398.15 K, 5840 kPa, x1 = 0.9152): 1131.83 ± 0.98 kg/m3
mass density (398.15 K, 6350 kPa, x1 = 0.3147): 971.33 ± 0.16 kg/m3
mass density (398.15 K, 6670 kPa, x1 = 1): 1144.53 ± 1.2 kg/m3
mass density (398.15 K, 9630 kPa, x1 = 0.9152): 1134.36 ± 1 kg/m3
mass density (398.15 K, 10070 kPa, x1 = 0.7452): 1105.35 ± 0.66 kg/m3
mass density (398.15 K, 10150 kPa, x1 = 0.0701): 801.14 ± 0.21 kg/m3
mass density (398.15 K, 10420 kPa, x1 = 0.5384): 1056.68 ± 0.34 kg/m3
mass density (398.15 K, 10490 kPa, x1 = 1): 1147.07 ± 1.2 kg/m3
mass density (398.15 K, 10930 kPa, x1 = 0.3147): 975.46 ± 0.17 kg/m3
mass density (398.15 K, 15030 kPa, x1 = 0.5384): 1060.22 ± 0.35 kg/m3
mass density (398.15 K, 15080 kPa, x1 = 0.7452): 1108.88 ± 0.69 kg/m3
mass density (398.15 K, 15110 kPa, x1 = 0.0701): 807.16 ± 0.24 kg/m3
mass density (398.15 K, 15620 kPa, x1 = 0.3147): 979.51 ± 0.17 kg/m3
mass density (398.15 K, 15730 kPa, x1 = 1): 1150.32 ± 1.2 kg/m3
mass density (398.15 K, 16470 kPa, x1 = 0.9152): 1138.81 ± 1.1 kg/m3
mass density (398.15 K, 19970 kPa, x1 = 0.5384): 1063.89 ± 0.37 kg/m3
mass density (398.15 K, 20040 kPa, x1 = 0.9152): 1141.07 ± 1.1 kg/m3
mass density (398.15 K, 20150 kPa, x1 = 0.3147): 983.26 ± 0.17 kg/m3
mass density (398.15 K, 20640 kPa, x1 = 0.7452): 1112.68 ± 0.72 kg/m3
mass density (398.15 K, 20740 kPa, x1 = 0.0701): 813.42 ± 0.27 kg/m3
mass density (398.15 K, 20980 kPa, x1 = 1): 1153.78 ± 1.3 kg/m3
mass density (398.15 K, 24980 kPa, x1 = 0.5384): 1067.49 ± 0.39 kg/m3
mass density (398.15 K, 25120 kPa, x1 = 0.9152): 1144.22 ± 1.1 kg/m3
mass density (398.15 K, 25130 kPa, x1 = 0.0701): 817.89 ± 0.29 kg/m3
mass density (398.15 K, 25140 kPa, x1 = 1): 1156.3 ± 1.3 kg/m3
mass density (398.15 K, 25170 kPa, x1 = 0.3147): 987.21 ± 0.16 kg/m3
mass density (398.15 K, 25370 kPa, x1 = 0.7452): 1115.8 ± 0.75 kg/m3
mass density (398.15 K, 30030 kPa, x1 = 0.5384): 1070.98 ± 0.41 kg/m3
mass density (398.15 K, 30280 kPa, x1 = 0.7452): 1118.94 ± 0.78 kg/m3
mass density (398.15 K, 30410 kPa, x1 = 0.3147): 991.12 ± 0.16 kg/m3
mass density (398.15 K, 30450 kPa, x1 = 0.9152): 1147.45 ± 1.1 kg/m3
mass density (398.15 K, 30850 kPa, x1 = 0.0701): 823.16 ± 0.32 kg/m3
mass density (398.15 K, 30890 kPa, x1 = 1): 1159.52 ± 1.4 kg/m3
mass density (398.15 K, 35070 kPa, x1 = 0.5384): 1074.35 ± 0.43 kg/m3
mass density (398.15 K, 35140 kPa, x1 = 0.7452): 1121.93 ± 0.81 kg/m3
mass density (398.15 K, 35160 kPa, x1 = 0.3147): 994.46 ± 0.16 kg/m3
mass density (398.15 K, 35740 kPa, x1 = 0.9152): 1150.56 ± 1.2 kg/m3
mass density (398.15 K, 35810 kPa, x1 = 1): 1162.4 ± 1.4 kg/m3
mass density (398.15 K, 35860 kPa, x1 = 0.0701): 827.28 ± 0.35 kg/m3
mass density (398.15 K, 39560 kPa, x1 = 1): 1164.38 ± 1.4 kg/m3
mass density (398.15 K, 39850 kPa, x1 = 0.3147): 997.59 ± 0.16 kg/m3
mass density (398.15 K, 39860 kPa, x1 = 0.9152): 1152.93 ± 1.2 kg/m3
mass density (398.15 K, 39920 kPa, x1 = 0.7452): 1124.78 ± 0.84 kg/m3
mass density (398.15 K, 39940 kPa, x1 = 0.5384): 1077.48 ± 0.45 kg/m3
mass density (398.15 K, 39990 kPa, x1 = 0.0701): 830.32 ± 0.37 kg/m3
